≈ marks a conversion by molar mass, not a printed value. Values belong to the molecule of their own block, whether it stands above or below them.
Legend:
Format in all cases: cell-based
Candida albicans = assay: Activity against Candida albicans, IC50 by microdilution with MTT viability test; details: 24 h at 35° C., molecule alone
Method: The inoculum is prepared by sampling 5 colonies obtained after 24 h of culture on Sabouraud agar medium, each one of at least 1 mm in diameter, and by putting them in suspension in 5 mL of sterile NaCl (0.85%). The turbidity of each suspension is evaluated by measuring the optical density at a wavelength of 530 nm then adjusted with a sterile isotonic solution so as to obtain an absorbance equivalent to that obtained with the turbidimetric standard (Mac Farland 0.5).
This protocol leads to the obtaining of a suspension of which the concentration is between 1×10^6 and 5×10^6 CFU/mL. […]
Measuring the growth of yeasts is carried out by a standard colorimetric technique that makes use of tetrazolium salt MTT (5 mg/mL) (3-(4,5-dimethylthiazol-2-yl)-2,5-diphenyl tetrazolium bromide) with menadione (vitamin K). […] The quantity of precipitate formed is proportional to the quantity of living cells and to the metabolic activity of each cell. It is sufficient therefore after the incubation of the cells with MTT for 1 h at 37° C., to add an agent solubilising the crystals of formazan, to centrifuge the 96-well plates, and to read the optical density of the supernatant. A simple dosage of the optical density at 570 nm by spectroscopy makes it possible to know the relative quantity of living cells. […]

Trichomonas vaginalis = assay: Anti Trichomonas vaginalis activity, parasite count after 24 h; details: reference product, MTZ-sensitive strain ATCC PRA-98
Method: Trichomonas vaginalis is axenically cultivated at 35° C. in a trypticase-yeast extract-maltose medium (TYM) (Diamond L. S. et al., J. Parasitol., 1957, 43(4), 488-490) enriched with 10% of decomplemented horse serum (Gibco, France); the strain is subcultured every other day (Camuzat-Dedenis B. et al., Eur. J. Med. Chem., 2001, 36(10), 837-842).
The tubes of culture containing the fresh TYM medium enriched with 10% of horse serum alone (control 1, noted as C1) or those with the compositions tested, are inoculated with the parasite at a rate of 2×10^5 protozoa in 3 mL. The compositions tested are the compositions of PIBCA-[chitosan20/chitosan20-TBA] that have different proportions of chitosan and of thiolated chitosan, namely 100/0, 75/25, 50/50 and 25/75 m/m %. The concentrations in nanoparticles studied are 12.5, 25, 50 and 100 μg/mL.
The results are compared between (i) the nanoparticles of PIBCA/F68; (ii) the solutions comprised of mixtures of PIBCA-[chitosan20/chitosan20-TBA] having different proportions of chitosan and thiolated chitosan, namely 100/0, 75/25, 50/50 and 25/75 m/m %, (iii) the polymerisation medium (control 2, noted as C2). […]
The tubes are incubated for 24 h at 35° C. and the number of parasites per milliliter in each tube is determined microscopically with a haemocytometer (Kova® Glasstic® Slide 10, Hycor Biomedical, United States). […]

[1] = system: Leishmania braziliensis axenic amastigotes; assay: In vitro evaluation on axenic amastigotes (resazurin); details: 72 h
Method: (§1) The compositions 5a (PIBCA-[chitosan20/chitosan20-TBA] 100/0 m/m %) and 4 (MC3+α-cyclodextrin 1/10% m/v), described in point 3 hereinabove, have been tested in vitro on three strains of Leishmania: Leishmania major (MHOM/SU/73/5-ASKH/LEM134), Leishmania tropica (LRC-L39/LEM2563), Leishmania braziliensis (MHOM/BR/75/M2903b). The IC50 were measured then compared to the reference product amphotericin B in order to determine the anti-leishmanial activity of the nanoparticles.
(§2) The culture of the axenic amastigotes was carried out at 37° C. in a complete M199 medium supplemented with 200 μM CaCl2 and 200 μM MgCl2.
(§3) Axenic amastigotes were induced by incubating promastigotes in complete M199 medium supplemented with 200 μM of CaCl2 and 200 μM MgCl2 at 37° C. with 5% CO2 for 48 h. Serial two-fold dilutions of the compositions were then carried out in 100 μl of the same medium in 96-well plates. The axenic amastigotes were then added in each well at 10^6/ml in 200 μl of final. volume After 72 h of incubation at 37° C. with 5% CO2, 20 μl of resazurin at 450 μM were added in each well, then incubated in the dark for 24 h at 37° C. with 5% CO2. In living cells, resazurin is reduced in resofurin. This conversion is monitored by measuring the absorbance at specific wavelengths of the resofurin (570 nm) and of the resazurin (600 nm) by using a microplate reader (Labsystem Multisken MS). The activity of the compositions is expressed in IC50. Amphotericin B is used as a reference product.

[2] = system: Leishmania major axenic amastigotes; assay: as above; details: 72 h
Method: as §1, §2, §3

[3] = system: Leishmania tropica axenic amastigotes; assay: as above; details: 72 h
Method: as §1, §2, §3

[4] = system: Leishmania braziliensis intramacrophagic amastigotes; assay: In vitro evaluation on intramacrophagic amastigotes (RAW 264.7, Sybr Green); details: 48 h of treatment
Method: as §1
(§4) The macrophages RAW 264.7 were maintained at 37° C. with 5% CO2 in DMEM medium (Dulbecco's modified Eagle's medium, Gibco, Saint-Aubin, France) supplemented with 10% of foetal calf serum, inactivated by heat (Invitrogen, Saint-Aubin, France), also called complete DMEM medium.
(§5) The evaluation of the compositions 5a and 4 on intramacrophagic amastigotes was conducted as previously described (Audisio et al., Eur. J. Med. Chem., 2012, 52, 44-50). The macrophages RAW 264.7 were added in the wells of 96-well plates at a rate of 2×10^4 cells per well and incubated for 24 h at 37° C. with 5% CO2. The axenic amastigotes were then induced as described hereinabove, centrifuged at 2000 g for 10 minutes, then resuspended in a complete DMEM medium, and added to each well at a rate of 3.2×10^5 parasites per well, in order to reach a parasite/macrophage ratio of 16:1. After 24 h of infection at 37° C. with 5% CO2, the extracellular parasites were removed and 100 μl of complete DMEM medium containing the seried dilutions of the compositions were added to each well. After 48 h of treatment, the culture medium is removed, then replaced with 100 μl of DirectPCR Lysis reagent (Euromedex, Souffelweyersheim, France), and three freezing-thawing cycles at ambient temperature are then carried out, then 50 μg/ml of proteinase K are added, and a final incubation at 55° C. for 4 hours is carried out in order to allow for the complete lysis of the cells. […] The fluorescence of the DNA was measured using the Mastercycler® realplex (Eppendorf, Montesson, France). […]

[5] = system: Leishmania major intramacrophagic amastigotes; assay: as above; details: 48 h of treatment
Method: as §1, §4, §5

[6] = system: Leishmania tropica intramacrophagic amastigotes; assay: as above; details: 48 h of treatment
Method: as §1, §4, §5

[7] = system: Leishmania braziliensis promastigotes; assay: In vitro evaluation on promastigotes (MTT); details: 72 h
Method: as §1
(§6) The promastigote culture was carried out at 26° C. in M199 medium (Sigma, Saint-Quentin Fallavier, France) supplemented with 4.2 mM NaHCO3, 10% of foetal calf serum inactivated by heat (Invitrogen, Saint-Aubin, France), 40 mM Hepes pH 7.5, 100 μM adenosine and 20 μM haemin (complete M199 medium).
(§7) The test of the compositions on prosmatigotes was conducted as previously described (Saint-Pierre-Chazalet et al., J. Antimicrob. Chemother., 2009, 64, 993-1001). Series of dilutions were carried out in 100 μl of complete M199 medium in a 96-well plate. Promastigotes in exponential growth were then added to each well at a rate of 10^6/ml in a final volume of 200 μl. After 72 h of incubation at 26° C., the viability of the promastigotes was measured by using 250 μg/ml of MTT, or 3-(4,5-dimethylthiazol-2-yl)-2,5-diphenyl tetrazolium bromide (Sigma, Saint-Quentin Fallavier, France), which is reduced in formazan, an insoluble product, by the active mitochondria of the living cells. After 4 h of incubation at 26° C., the formazan is then solubilised by adding 100 μl of isopropanol containing 40 mM of HCl in each well, then incubating for 15 minutes under stirring. The viability of the cells was then quantified by measuring the absorbance at 570 nm using a plate reader (Labsystems Multiskan MS). The activity of the compositions is expressed in IC50. Amphotericin B is used as a reference product.

[8] = system: Leishmania major promastigotes; assay: In vitro evaluation on promastigotes (MTT); details: 72 h
Method: as §1, §6, §7

[9] = system: Leishmania tropica promastigotes; assay: In vitro evaluation on promastigotes (MTT); details: 72 h
Method: as §1, §6, §7

IC50 against Candida albicans (Candida albicans): 0.00068%
Compound: N=C(NCCCCCCNC(=N)NC(=N)Nc1ccc(Cl)cc1)NC(=N)Nc1ccc(Cl)cc1.O=C(O)[C@H](O)[C@@H](O)[C@H](O)[C@H](O)CO.O=C(O)[C@H](O)[C@@H](O)[C@H](O)[C@H](O)CO [chlorhexidine digluconate]

Compound: Cc1ncc([N+](=O)[O-])n1CCO [MTZ, metronidazole]
lethal concentration against Trichomonas vaginalis (Trichomonas vaginalis): 7 µg/mL

IC50 (ng/μl) ± SEM [1]: 0.055 ± 0.014 ng/µL (≈ 0.0595 µM) | IC50 (ng/μl) ± SEM [2]: 0.038 ± 0.002 ng/µL (≈ 0.0411 µM) | IC50 (ng/μl) ± SEM [3]: 0.049 ± 0.01 ng/µL (≈ 0.053 µM) | IC50 (ng/μl) ± SEM [4]: 0.29 ± 0.09 ng/µL (≈ 0.314 µM) | IC50 (ng/μl) ± SEM [5]: 0.49 ± 0.13 ng/µL (≈ 0.53 µM) | IC50 (ng/μl) ± SEM [6]: 0.51 ± 0.07 ng/µL (≈ 0.552 µM) | IC50 (ng/μl) ± SEM [7]: 0.022 ± 0.005 ng/µL (≈ 0.0238 µM) | IC50 (ng/μl) ± SEM [8]: 0.015 ± 0.004 ng/µL (≈ 0.0162 µM) | IC50 (ng/μl) ± SEM [9]: 0.023 ± 0.002 ng/µL (≈ 0.0249 µM)
Compound: C[C@@H]1[C@H](O)[C@@H](C)/C=C/C=C/C=C/C=C/C=C/C=C/C=C/[C@H](O[C@@H]2O[C@H](C)[C@@H](O)[C@H](N)[C@@H]2O)C[C@@H]2O[C@](O)(C[C@@H](O)C[C@@H](O)[C@H](O)CC[C@@H](O)C[C@@H](O)CC(=O)O[C@H]1C)C[C@H](O)[C@H]2C(=O)O [Amphotericin B-DOC, Amphotericin B]

From patent publication US10172947B2, “Antiparasitic and/or antifungal composition comprising hydrophobised chitosan” (CENTRE NATIONAL DE LA RECHERCHE SCIENTIFIQUE (CNRS), priority 2013, dated 2019)
